What was measured:
Experiment in all cases: relative viability (nuclei count vs DMSO), 5 days (fraction); higher = more cells survive
[1] = tested on: H3255
How it was run: (§1)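 Medians of duplicate plates are given as relative viability. That measure is the nuclei count in treated wells divided by the count in vehicle wells. Counts were taken on 4× images of lung cancer cell lines in 1536-well plates, 5 days after pin-tool dosing the day after seeding with one drug alone or a fixed anchor-drug dose plus five library-drug doses (not always all listed) in √10 steps.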

[2] = tested on: PC-14
How it was run: as §1

[3] = tested on: NCI-H520
How it was run: as §1

[4] = tested on: COR-L23
How it was run: as §1

[5] = tested on: CAL-12T
How it was run: as §1

[6] = tested on: HCC-15
How it was run: as §1

[7] = tested on: NCI-H2228
How it was run: as §1

[8] = tested on: LK-2
How it was run: as §1

[9] = tested on: EKVX
How it was run: as §1

[10] = tested on: PC-3 [JPC-3]
How it was run: as §1

[11] = tested on: NCI-H1355
How it was run: as §1

[12] = tested on: NCI-H1734
How it was run: as §1

[13] = tested on: NCI-H1437
How it was run: as §1

[14] = tested on: NCI-H1650
How it was run: as §1

[15] = tested on: NCI-H2405
How it was run: as §1

[16] = tested on: NCI-H2342
How it was run: as §1

[17] = tested on: NCI-H661
How it was run: as §1

[18] = tested on: NCI-H322M
How it was run: as §1

[19] = tested on: HCC-827
How it was run: as §1

[20] = tested on: SW 1573
How it was run: as §1

[21] = tested on: ABC-1
How it was run: as §1

[22] = tested on: RERF-LC-KJ
How it was run: as §1

For NC(=O)Nc1cc(-c2cccc(F)c2)sc1C(=O)N[C@H]1CCCNC1 [AZD7762] + Cc1cc(Nc2cc(N3CCN(C)CC3)nc(Sc3ccc(NC(=O)C4CC4)cc3)n2)n[nH]1 [Tozasertib] (partner 0.1 µM), the relative viability ([1]; first compound 0.01 µM) was 0.704, the relative viability ([1]; first compound 0.03162 µM) was 0.595 and the relative viability ([1]; first compound 0.1 µM) was 0.677. For the same molecule, the relative viability ([1]; first compound 0.3162 µM) was 0.591, the relative viability ([1]; first compound 1 µM) was 0.576 and the relative viability ([2]; first compound 0.01 µM) was 0.69. It also gave a relative viability ([2]; first compound 0.03162 µM) of 0.544, a relative viability ([2]; first compound 0.1 µM) of 0.555 and a relative viability ([2]; first compound 0.3162 µM) of 0.511. It also gave a relative viability ([2]; first compound 1 µM) of 0.269, a relative viability ([3]; first compound 0.01 µM) of 0.493 and a relative viability ([3]; first compound 0.03162 µM) of 0.36. The relative viability ([3]; first compound 0.1 µM) was 0.425, the relative viability ([3]; first compound 0.3162 µM) was 0.39 and the relative viability ([3]; first compound 1 µM) was 0.275. The relative viability ([4]; first compound 0.01 µM) was 0.198, the relative viability ([4]; first compound 0.03162 µM) was 0.229 and the relative viability ([4]; first compound 0.1 µM) was 0.193. For the same molecule, the relative viability ([4]; first compound 0.3162 µM) was 0.17, the relative viability ([4]; first compound 1 µM) was 0.0829 and the relative viability ([5]; first compound 0.01 µM) was 0.402. For the same molecule, the relative viability ([5]; first compound 0.03162 µM) was 0.332, the relative viability ([5]; first compound 0.1 µM) was 0.353 and the relative viability ([5]; first compound 0.3162 µM) was 0.168. It also gave a relative viability ([5]; first compound 1 µM) of 0.0999, a relative viability ([6]; first compound 0.01 µM) of 0.448 and a relative viability ([6]; first compound 0.03162 µM) of 0.381. For the same molecule, the relative viability ([6]; first compound 0.1 µM) was 0.511, the relative viability ([6]; first compound 0.3162 µM) was 0.432 and the relative viability ([6]; first compound 1 µM) was 0.212. It also gave a relative viability ([7]; first compound 0.01 µM) of 0.274, a relative viability ([7]; first compound 0.03162 µM) of 0.464 and a relative viability ([7]; first compound 0.1 µM) of 0.321. It also gave a relative viability ([7]; first compound 0.3162 µM) of 0.245, a relative viability ([7]; first compound 1 µM) of 0.121 and a relative viability ([8]; first compound 0.01 µM) of 0.194. For the same molecule, the relative viability ([8]; first compound 0.03162 µM) was 0.186, the relative viability ([8]; first compound 0.1 µM) was 0.195 and the relative viability ([8]; first compound 0.3162 µM) was 0.156. For the same molecule, the relative viability ([8]; first compound 1 µM) was 0.165, the relative viability ([9]; first compound 0.01 µM) was 0.393 and the relative viability ([9]; first compound 0.03162 µM) was 0.353. The relative viability ([9]; first compound 0.1 µM) was 0.414, the relative viability ([9]; first compound 0.3162 µM) was 0.394 and the relative viability ([9]; first compound 1 µM) was 0.255. The relative viability ([10]; first compound 0.01 µM) was 0.859, the relative viability ([10]; first compound 0.03162 µM) was 0.891 and the relative viability ([10]; first compound 0.1 µM) was 0.836. For the same molecule, the relative viability ([10]; first compound 0.3162 µM) was 0.873, the relative viability ([10]; first compound 1 µM) was 0.85 and the relative viability ([11]; first compound 0.01 µM) was 0.621. It also gave a relative viability ([11]; first compound 0.03162 µM) of 0.693, a relative viability ([11]; first compound 0.1 µM) of 0.566 and a relative viability ([11]; first compound 0.3162 µM) of 0.666. The relative viability ([11]; first compound 1 µM) was 0.532, the relative viability ([12]; first compound 0.01 µM) was 0.263 and the relative viability ([12]; first compound 0.03162 µM) was 0.25. The relative viability ([12]; first compound 0.1 µM) was 0.234, the relative viability ([12]; first compound 0.3162 µM) was 0.22 and the relative viability ([12]; first compound 1 µM) was 0.199. It also gave a relative viability ([13]; first compound 0.01 µM) of 0.408, a relative viability ([13]; first compound 0.03162 µM) of 0.41 and a relative viability ([13]; first compound 0.1 µM) of 0.439. The relative viability ([13]; first compound 0.3162 µM) was 0.372, the relative viability ([13]; first compound 1 µM) was 0.366 and the relative viability ([14]; first compound 0.01 µM) was 0.482. For the same molecule, the relative viability ([14]; first compound 0.03162 µM) was 0.467, the relative viability ([14]; first compound 0.1 µM) was 0.424 and the relative viability ([14]; first compound 0.3162 µM) was 0.207. For the same molecule, the relative viability ([14]; first compound 1 µM) was 0.118, the relative viability ([15]; first compound 0.01 µM) was 0.793 and the relative viability ([15]; first compound 0.03162 µM) was 0.832. The relative viability ([15]; first compound 0.1 µM) was 0.783, the relative viability ([15]; first compound 0.3162 µM) was 0.748 and the relative viability ([15]; first compound 1 µM) was 0.424. It also gave a relative viability ([16]; first compound 0.01 µM) of 0.489, a relative viability ([16]; first compound 0.03162 µM) of 0.501 and a relative viability ([16]; first compound 0.1 µM) of 0.502. For the same molecule, the relative viability ([16]; first compound 0.3162 µM) was 0.455, the relative viability ([16]; first compound 1 µM) was 0.487 and the relative viability ([17]; first compound 0.01 µM) was 0.357. For the same molecule, the relative viability ([17]; first compound 0.03162 µM) was 0.368, the relative viability ([17]; first compound 0.1 µM) was 0.372 and the relative viability ([17]; first compound 0.3162 µM) was 0.432. For the same molecule, the relative viability ([17]; first compound 1 µM) was 0.396, the relative viability ([18]; first compound 0.01 µM) was 0.47 and the relative viability ([18]; first compound 0.03162 µM) was 0.515. The relative viability ([18]; first compound 0.1 µM) was 0.514, the relative viability ([18]; first compound 0.3162 µM) was 0.307 and the relative viability ([18]; first compound 1 µM) was 0.305. It also gave a relative viability ([19]; first compound 0.01 µM) of 0.41, a relative viability ([19]; first compound 0.03162 µM) of 0.449 and a relative viability ([19]; first compound 0.1 µM) of 0.409. It also gave a relative viability ([19]; first compound 0.3162 µM) of 0.394, a relative viability ([19]; first compound 1 µM) of 0.372 and a relative viability ([20]; first compound 0.01 µM) of 0.225. For the same molecule, the relative viability ([20]; first compound 0.03162 µM) was 0.186, the relative viability ([20]; first compound 0.1 µM) was 0.153 and the relative viability ([20]; first compound 0.3162 µM) was 0.15. For the same molecule, the relative viability ([20]; first compound 1 µM) was 0.117, the relative viability ([21]; first compound 0.01 µM) was 0.18 and the relative viability ([21]; first compound 0.03162 µM) was 0.178. It also gave a relative viability ([21]; first compound 0.1 µM) of 0.16, a relative viability ([21]; first compound 0.3162 µM) of 0.115 and a relative viability ([21]; first compound 1 µM) of 0.111. It also gave a relative viability ([22]; first compound 0.01 µM) of 0.637, a relative viability ([22]; first compound 0.03162 µM) of 0.509 and a relative viability ([22]; first compound 0.1 µM) of 0.422. For the same molecule, the relative viability ([22]; first compound 0.3162 µM) was 0.453 and the relative viability ([22]; first compound 1 µM) was 0.249.

— the supplement of paper PMC10307832
